Laboratory results: patent publication US9662372B2 (priority 2013, dated 2017)
Where a SMILES comes first, the peptide text is derived from it.

What was measured:
C. difficile ATCC 9689 [1] = assay type: cell-based, Clostridium difficile
C. difficile ATCC 9689 [2] = assay: Bacterial mass in wells of PM panels (OD 750 nm); assay type: cell-based, Clostridium difficile; details: OD difference with vs without C. difficile, 72 h
[3] = phosphorus/sulfur source panel PM04
[4] = nitrogen source (PM03/06/07/08)

## O=P(O)(O)OP(=O)(O)O [Pyrophosphate]
C. difficile ATCC 9689 [1]
  Toxin: <0.122 ng/mL
C. difficile ATCC 9689 [2]; [3]
  C. difficile Mass: 0.0075 OD (750 nm)

## Arg-Gln
C. difficile ATCC 9689 [1]
  Toxin: 8912 ng/mL
C. difficile ATCC 9689 [2]; [4]
  C. difficile Mass: 0.0476 OD (750 nm)

## Gly-Gly-Ile
C. difficile ATCC 9689 [1]
  Toxin: <0.122 ng/mL
C. difficile ATCC 9689 [2]; [4]
  C. difficile Mass: 0.0421 OD (750 nm)

## NCCc1ccccc1 [β-Phenylethylamine]
C. difficile ATCC 9689 [2]; carbon source (PM01/PM02)
  C. difficile Mass: 0.0477 OD (750 nm)
C. difficile ATCC 9689 [2]; [4]
  C. difficile Mass: 0.0448 OD (750 nm)

## CC(O)C(N)=O (racemic) [D,L-Lactamide]
C. difficile ATCC 9689 [1]
  Toxin: 2859 ng/mL
C. difficile ATCC 9689 [2]; [4]
  C. difficile Mass: 0.04 OD (750 nm)

## NCCS(=O)O [Hypotaurine]
C. difficile ATCC 9689 [2]; [3]
  C. difficile Mass: 0.0438 OD (750 nm)

## CC(C)[C@H](N)C(=O)O [L-Valine]
C. difficile ATCC 9689 [2]; carbon source (PM01/PM02)
  C. difficile Mass: 0.0917 OD (750 nm)
C. difficile ATCC 9689 [2]; [4]
  C. difficile Mass: 0.0431 OD (750 nm)

## Ile-Arg
C. difficile ATCC 9689 [1]
  Toxin: 122 ng/mL
C. difficile ATCC 9689 [2]; [4]
  C. difficile Mass: 0.0442 OD (750 nm)

## Lys-Trp
C. difficile ATCC 9689 [1]
  Toxin: 5277 ng/mL
C. difficile ATCC 9689 [2]; [4]
  C. difficile Mass: 0.006 OD (750 nm)

## Arg-Asp
C. difficile ATCC 9689 [1]
  Toxin: 10371 ng/mL
C. difficile ATCC 9689 [2]; [4]
  C. difficile Mass: 0.0444 OD (750 nm)

## Nc1ccn([C@@H]2O[C@@H]3COP(=O)(O)O[C@H]3[C@H]2O)c(=O)n1 [Cytidine 3′,5′-Cyclic Monophosphate]
C. difficile ATCC 9689 [1]
  Toxin: 321 ng/mL
C. difficile ATCC 9689 [2]; [3]
  C. difficile Mass: 0.0106 OD (750 nm)

## NC(=O)NC1NC(=O)NC1=O (stereo not drawn) [Allantoin]
C. difficile ATCC 9689 [2]; [4]
  C. difficile Mass: 0.0425 OD (750 nm)

## CC[C@H](C)[C@H](N)C(=O)O [L-Isoleucine]
C. difficile ATCC 9689 [2]; [4]
  C. difficile Mass: 0.0563 OD (750 nm)

## Gly-Pro
C. difficile ATCC 9689 [1]
  Toxin: 3798 ng/mL
C. difficile ATCC 9689 [2]; [4]
  C. difficile Mass: 0.0414 OD (750 nm)

## CCCCCC(=O)O [Caproic acid]
C. difficile ATCC 9689 [2]; carbon source (PM01/PM02)
  C. difficile Mass: 0.0568 OD (750 nm)

## Arg-Ala
C. difficile ATCC 9689 [1]
  Toxin: 10080 ng/mL
C. difficile ATCC 9689 [2]; [4]
  C. difficile Mass: 0.0456 OD (750 nm)

## CC(C)CC(N)C(=O)NC(Cc1ccccc1)C(=O)O (stereo not drawn) [Leu-Phe] (H-Leu-Phe-OH; configuration not given here)
C. difficile ATCC 9689 [1]
  Effect on toxin production (in words): toxin production inhibitor
  Toxin: <0.122 ng/mL
C. difficile ATCC 9689 [2]; [4]
  C. difficile Mass: 0.0538 OD (750 nm)

## CCCCN [N-Butylamine]
C. difficile ATCC 9689 [1]
  Toxin: 5679 ng/mL
C. difficile ATCC 9689 [2]; [4]
  C. difficile Mass: 0.0407 OD (750 nm)

## Nc1cc[nH]c(=O)n1 [Cytosine]
C. difficile ATCC 9689 [2]; [4]
  C. difficile Mass: 0.0361 OD (750 nm)

## NC=O [Formamide]
C. difficile ATCC 9689 [2]; [4]
  C. difficile Mass: 0.0418 OD (750 nm)

## Cc1cn([C@H]2C[C@H](O)[C@@H](CO)O2)c(=O)[nH]c1=O [Thymidine]
C. difficile ATCC 9689 [2]; [4]
  C. difficile Mass: 0.0384 OD (750 nm)

## NC(=O)[C@@H](O)[C@@H](O)[C@H](O)[C@@H](O)C=O [Glucuronamide]
C. difficile ATCC 9689 [2]; [4]
  C. difficile Mass: 0.0369 OD (750 nm)

## OCc1ccccc1O[C@@H]1O[C@H](CO)[C@@H](O)[C@H](O)[C@H]1O [Salicin]
C. difficile ATCC 9689 [2]; carbon source (PM01/PM02)
  C. difficile Mass: 0.1291 OD (750 nm)

## N[C@@H]1C(O)O[C@H](CO)[C@@H](O)[C@@H]1O (stereo partly drawn) [D-Mannosamine]
C. difficile ATCC 9689 [2]; [4]
  C. difficile Mass: 0.0364 OD (750 nm)

## Cc1c[nH]c(=O)[nH]c1=O [Thymine]
C. difficile ATCC 9689 [2]; [4]
  C. difficile Mass: 0.0338 OD (750 nm)

## N[C@@H](CCO)C(=O)O [L-Homoserine]
C. difficile ATCC 9689 [2]; carbon source (PM01/PM02)
  C. difficile Mass: 0.0071 OD (750 nm)
C. difficile ATCC 9689 [2]; [4]
  C. difficile Mass: 0.0293 OD (750 nm)

## C[C@H](CCC(=O)NCCS(=O)(=O)O)[C@H]1CC[C@H]2[C@@H]3[C@H](O)C[C@@H]4C[C@H](O)CC[C@]4(C)[C@H]3C[C@H](O)[C@]12C [Taurocholic acid]
C. difficile ATCC 9689 [2]; [3]
  C. difficile Mass: 0.0536 OD (750 nm)

## CC(N)=O [Acetamide]
C. difficile ATCC 9689 [2]; [4]
  C. difficile Mass: 0.0458 OD (750 nm)

## O=C[C@@H](O)[C@@H](O)[C@H](O)CO [D-Lyxose]
C. difficile ATCC 9689 [2]; carbon source (PM01/PM02)
  C. difficile Mass: 0.1508 OD (750 nm)

## O=C(O)/C=C/C(=O)O [Fumaric Acid]
C. difficile ATCC 9689 [2]; carbon source (PM01/PM02)
  C. difficile Mass: 0.018 OD (750 nm)

## N[C@@H](Cc1ccc(O)cc1)C(=O)O [L-Tyrosine]
C. difficile ATCC 9689 [2]; [4]
  C. difficile Mass: 0.1528 OD (750 nm)

## N[C@@H](Cc1c[nH]c2ccccc12)C(=O)O [L-Tryptophan]
C. difficile ATCC 9689 [2]; [4]
  C. difficile Mass: 0.0299 OD (750 nm)

## N[C@H]1C(O)O[C@H](CO)[C@H](O)[C@@H]1O (stereo partly drawn) [D-Galactosamine]
C. difficile ATCC 9689 [2]; [4]
  C. difficile Mass: 0.0374 OD (750 nm)

## NCCc1ccc(O)cc1 [Tyramine]
C. difficile ATCC 9689 [2]; [4]
  C. difficile Mass: 0.0442 OD (750 nm)

## NCCCC(=O)O [γ-Aminobutyric acid]
C. difficile ATCC 9689 [2]; [4]
  C. difficile Mass: 0.0375 OD (750 nm)

## O=c1cc[nH]c(=O)[nH]1 [Uracil]
C. difficile ATCC 9689 [2]; [4]
  C. difficile Mass: 0.0375 OD (750 nm)

## CC(C)C[C@H](N)C(=O)O [L-Leucine]
C. difficile ATCC 9689 [2]; carbon source (PM01/PM02)
  C. difficile Mass: 0.089 OD (750 nm)

## O=S1(=O)CCCC1 [Tetramethylene Sulfone]
C. difficile ATCC 9689 [2]; [3]
  C. difficile Mass: 0.0442 OD (750 nm)

## Nc1ccn([C@@H]2O[C@H](CO)[C@@H](O)[C@H]2O)c(=O)n1 [Cytidine]
C. difficile ATCC 9689 [2]; [4]
  C. difficile Mass: 0.0456 OD (750 nm)

## NCCCC[C@@H](N)C(=O)O [D-Lysine]
C. difficile ATCC 9689 [2]; [4]
  C. difficile Mass: 0.0489 OD (750 nm)

## N=C(N)NCCC[C@H](N)C(=O)O [L-Arginine]
C. difficile ATCC 9689 [2]; [4]
  C. difficile Mass: 0.046 OD (750 nm)

## NC(=O)NCCC[C@H](N)C(=O)O [L-Citrulline]
C. difficile ATCC 9689 [2]; [4]
  C. difficile Mass: 0.0377 OD (750 nm)

## CCCCS(=O)(=O)O [Butane Sulfonic acid]
C. difficile ATCC 9689 [2]; [3]
  C. difficile Mass: 0.0398 OD (750 nm)

## N[C@@H](Cc1ccccc1)C(=O)O [L-Phenylalanine]
C. difficile ATCC 9689 [2]; carbon source (PM01/PM02)
  C. difficile Mass: 0.0714 OD (750 nm)
